From a melting point compilation (Tetko et al.; mined from patent text by program, amines drawn as free bases though some values may be those of a salt) come the findings set out here.

SMILES strings stand for the structures. Some results are limits rather than exact numbers.

As to `CCOC(=O)CCCCOc1ccc(N2CCN(c3ccncc3)CC2)cc1`, the melting point lay within 79 to 82 °C. The value for `CCOC(=O)c1cn(C)nc1C(F)F` was 43 to 46 °C; that for `CC1(C)Cc2cccc(Oc3c(Cl)cc(N)cc3Cl)c2O1` was 140 to 145 °C; that for `O=C(O)c1cc(F)ccc1Nc1ccnc2cc(Cl)ccc12` was 341 to 342 °C. In turn, `O=C1N(Cc2ccc(Cl)s2)c2cccc(-c3ccoc3)c2C12COc1cc3c(cc12)OCO3` (configuration not stated) returned a melting point of 166 to 168 °C. In turn, `N=c1sc2cc(OC(F)(F)F)ccc2n1CCS(=O)C1CCN(Cc2ccccc2)CC1` (configuration not stated) returned a melting point of 97 °C. The value for `C=C(CCl)COc1ccc(C(=O)OC)cc1CS(=O)(=O)c1ccccc1` was 92 to 93 °C; that for `COc1cc(C(=O)c2csc(-c3ccc(N)cc3)n2)cc(OC)c1OC` was 166 to 169 °C; that for `CC(C)(c1cc(F)ccc1O)c1cc(F)ccc1O` was 155 °C. The value for `CCCn1cc(-c2c(-c3ccc(F)cc3)nn3ccncc23)ccc1=O` was 183 to 184 °C. In the case of `CCCn1nc(C(C)C)c(C(=O)OCc2cccc(C(=O)c3ccccc3)c2)c1Cc1ccc(-c2ccccc2S(=O)(=O)NC(=O)OC(C)(C)C)c(F)c1`, the melting point is 55 to 59 °C.

For the molecule `CNc1noc(C)c1Cl`, the melting point is 43 to 47 °C.

With `CC(=O)N(Nc1ccc(Cl)cc1F)c1c(C#N)cnc2cc(O)ccc12`, the melting point fell in the range of 182 to 191 °C. For `CCCCCCCCCCCCOc1ccc(C(=O)OC)cc1` the value was 56 to 57 °C; for `Cc1ncc([N+](=O)[O-])n1CCN1C(=O)C2c3cccc4cccc(c34)C2C1=O` (configuration not stated), 183 to 185 °C.

`COc1ccc2cc(C3=CCC4(CCNCC4)CC3)ccc2c1` displayed a melting point of 147 to 150 °C. `CCc1cc2[nH]c(=O)c(=O)[nH]c2c(N(CC(=O)OC)S(C)(=O)=O)c1Cl` returned a melting point of 296 to 299 °C. For `NS(=O)(=O)OCCCCOc1ccccc1` the value was 76 to 77 °C; for `O=C(CCc1cccc([N+](=O)[O-])c1)Nc1ccc(Nc2ccccc2)cc1`, 130 to 132 °C. Molecule `CCCCCCCCCCCCCCCCCCOc1ccc(OCc2ccccc2)c(C(=O)N(CC(=O)OCC)CC(=O)OCC)c1` registered a melting point of 61 to 62 °C. `CCNC(=O)c1c(C)cccc1C(C)(C)C` yielded a melting point of 110 to 112 °C. Molecule `CC(C)(C)Nc1nc(N2CCCC2)cc(N2CCNCC2)n1` had a melting point of 162 to 165 °C. The value for `CCCCCCCCCCCCCCCCCCCCCCSC[C@H](NC(=O)CCCCCCCCCCCCCCC)C(=O)O` was 90 to 92 °C; that for `CCOC(=O)C1CC(O)c2c(C)c(O)c(C)c(C)c2O1` (configuration not stated) was 138 to 144 °C. For `CSc1ccc(C(O)CBr)cc1Cl` (configuration not stated) the value was 86 to 87 °C; for `C=CCC(C#N)(C#N)Cc1ccc(C)cc1`, 74.5 °C; for `COC(=O)c1ccc2[nH]c(=O)oc(=O)c2c1`, 275 to 278 °C. The value for `CCN1C(C(=O)Nc2cncc(Cl)n2)=C(O)c2ccccc2S1(=O)=O` was 233 to 235 °C; that for `Cc1cc2ccc(/C=C/C(=O)OCc3ccccc3)cc2[nH]1` was 164 to 165 °C; that for `CC(C)(O)C#Cc1ccc(C(=C2CC(C)(C)CC(C)(C)C2)c2ccc(O)cc2)cc1` was 186 to 187 °C. Regarding `CC(=O)OCCC1CC(=O)N1` (configuration not stated), the melting point is 44 to 47 °C. For `O=C(c1ccc([N+](=O)[O-])c([N+](=O)[O-])c1)N1CCOCC1` the value was 136 to 137 °C; for `COC(=O)c1ccc(C(=O)N2CCN(c3ncccc3NCC(C)C)CC2)nc1`, 82 to 84 °C. In turn, `CCCCCC(=O)c1cccc(OCc2ccc3ccccc3c2)c1` yielded a melting point of 52 to 55 °C. Molecule `Cc1ccc(S(=O)(=O)NC(=O)NCCCCCCNC(=O)NS(=O)(=O)c2ccc(C)o2)o1` gave a melting point of 115 to 116 °C. The value for `CCC(C)Nc1nc(-c2cc(OC)c(OC)c(OC)c2)nc2sc(C#N)c(C)c12` (configuration not stated) was 91 to 93 °C; that for `O=C(Nc1ccc(OCCN2CCOCC2)c2ccccc12)c1cc(F)cc(N2CCOCC2)c1` was 123 to 124 °C; that for `CCOC(=O)CCc1cn(-c2ccc([N+](=O)[O-])cn2)nc1C(C)C` was 90 to 91 °C. The value for `CCOC(=O)C1=C(COCCNS(=O)(=O)c2ccc(Cl)nc2)NC(C)=C(C(=O)OC)C1c1ccccc1Cl` (configuration not stated) was 140 °C; that for `CSC(=Nc1c(C(C)C)cc(Oc2ccc(Cl)cc2)nc1C(C)C)NC(C)(C)C` was 95 to 100 °C; that for `COc1cc(CC(=O)O)cc2c1NC(C(F)(F)F)CC2` (configuration not stated) was 108 to 109 °C. Turning to `CCOC(=O)C(Cc1ccc(C(C(N)=O)C(C)c2ccccc2N2CCCCC2)cc1)C(=O)OCC` (configuration not stated), the melting point is 123 to 125 °C.

Consider `COC(=O)CCCCCCCCCCCCCCCCCCCCC(=O)c1c(C)cc(OC)c(OC)c1O`, for which the melting point was in the range of 72 to 72.5 °C. As to `CCOC(=O)CCC1CCCN2CCc3c([nH]c4ccccc34)C12` (configuration not stated), the melting point lay in the range of 72 to 74 °C. For `Cc1cccc(NC(=O)NC2N=C(CO)c3cccc(C)c3N(CC(=O)N3CCCCCCC3)C2=O)c1` (configuration not stated) the value was 214 to 216 °C. The value for `Fc1ccc(N2CCN(CCCOc3ccccc3-c3nnco3)CC2)cc1` was 102 to 103 °C; that for `CC(C)(C#N)c1cc(Cn2cncn2)cc(-c2ccc(OS(N)(=O)=O)c(Cl)c2)c1` was 71 to 74 °C; that for `CCc1cc(C(=O)c2ccccc2Cl)c(NC=C[N+](=O)[O-])s1` was 125 to 126 °C. As for `Cc1ccc(N2C(=O)C(O)=C(C(=O)c3ccc(C(C)C)cc3)C2c2ccc(-n3cncn3)cc2)nn1` (configuration not stated), the melting point is 284 °C. The value for `CCNc1nc(SC)ncc1C=Nc1cc(OC)cc(OC)c1Cl` was 196 to 198 °C; that for `O=C(O)c1cnccc1-c1ccccc1` was 245 to 246 °C; that for `CN1COc2cc(CCCN3CCOCC3)cnc21` was under 80 °C. For `COC(=O)Cc1ccc(NC(=O)Nc2ccccc2C)c(OC)c1` the value was 167 to 168 °C; for `O=c1c(N2CCNCC2)nccn1CCOc1cccc([N+](=O)[O-])c1`, 171 °C. `O=C1CCNC(=O)C1C(=O)c1ccc(Cl)cc1[N+](=O)[O-]` (configuration not stated) registered a melting point of 161 to 164 °C. For `CCOC(=O)c1c(O)c2c(CC)nc(CC)cc2[nH]c1=O` the value was 159 to 160 °C; for `CC(c1oc2ccccc2c(=O)c1-c1cccc(F)c1)n1ncc2c(Cl)ccnc21` (configuration not stated), 173 to 176 °C; for `COc1ccc(C(=O)c2ccc(Cl)c(Cl)c2)c(Cl)c1Cl`, 113 to 140 °C. For `CCOCCNc1nc(C)c(CCO)c(=O)[nH]1` the value was 172 °C; for `CO/N=C(\C)[C@H]1CC[C@H]2[C@@H]3CC=C4C[C@@H](O)CC[C@]4(C)[C@H]3CC[C@]12C`, 167 to 168 °C. The value for `Cc1cc(C(Cl)=NNc2ccccc2)ccc1[N+](=O)[O-]` was 146 to 148 °C; that for `CN1CCCCC1CCc1ccccc1NC(=O)c1ccc(OC(C)(C)C)cc1` (configuration not stated) was 91 to 93.5 °C; that for `COc1cccc2c(=O)c(C(N)=O)coc12` was 229 to 231 °C. Molecule `COc1ccc(C(=O)NCCc2cccc(OCc3ccccc3)c2)cc1OC` displayed a melting point of 82 to 84 °C. For `CCOc1nn(-c2ccc(C(F)(F)F)cn2)cc1CCCOc1ccc(OC)cc1CC(=O)O` the value was 138 to 139 °C; for `CC1(C)Oc2ccc(C#N)cc2[C@@H](N2CCN(C(=O)c3ccco3)CC2=O)[C@@H]1O` (relative stereo), 226 to 229 °C. The value for `COC(=O)c1ccc(CCc2nc(NC(C)=O)sc2Cc2ccc(S(C)(=O)=O)cc2)cc1` was 209 to 210 °C.

Turning to `CC(C)(C)OC(=O)NCc1ccc(C(=O)Nc2ccccc2N)cc1`, the melting point was in the range of 160 to 162 °C.

With `O=S(=O)(c1ccccc1)c1ccc(Oc2ccc(Cl)c(Cl)c2)cc1`, the melting point fell in the range of 145 to 146 °C. The value for `Cc1ccccc1C1(O)C=C(C(C)(C)C)C(=O)C(C(C)(C)C)=C1` was 168 to 171 °C; that for `O=C(O)c1cc(-n2cccc2)cc(C(F)(F)F)c1` was 191 to 192 °C. The value for `CCOC(=O)NN=C(c1ccc(Cl)cc1)c1ccc(OS(=O)(=O)c2ccc([N+](=O)[O-])cc2)cc1` was 134 to 138 °C. The value for `COc1cc(N)c(Cl)cc1C(=O)N[C@H]1CCN(CCCC(=O)N2CCC(=O)CC2)C[C@H]1OC` (relative stereo) was 157 °C. With `FC(F)(F)c1cc(Cl)c(Oc2ccc3ccc(S)cc3c2)c(Cl)c1`, the melting point came out at 98 °C. The value for `CC(CCOc1ccccc1NS(C)(=O)=O)N1CCC(OC(c2ccccc2)c2cccs2)CC1` (configuration not stated) was 100 to 102 °C. For `O=C(O)CCC=C(Cl)Cl` the value was 117 to 118 °C; for `CC1=c2c(cc3c(c2C)C=C(C(=O)OCc2ccccc2)N=3)N=C1C(=O)OCc1ccccc1`, 197 to 200 °C. Molecule `CCc1cn(C2CCC(CO)O2)c(=O)[nH]c1=O` (configuration not stated) showed a melting point of 109 to 113 °C. The value for `NC(=O)c1nnn(Cc2cc(Cl)c(Sc3ccc(Cl)cc3)c(Cl)c2)c1N` was 180 to 182 °C; that for `Cc1c(NC(=O)c2ccc(OC[C@@H]3CCCO3)cc2)ccc2cc(CN3CCC(C)(O)CC3)[nH]c12` was 169 °C.

`OCCC(O)(c1ccc(Br)cc1)c1cccnc1` (configuration not stated) had a melting point of 130 to 132 °C. For `CCOC(=O)c1ccc(O)nc1` the value was 143 to 144 °C. For `C#CC[C@H](c1nc2cc(Cl)ccc2c(=O)n1Nc1ccccc1)N(CCCN)C(=O)c1ccc(C)c(F)c1F` the value was 175 to 180 °C.

Regarding `O=C1CCN(Cc2ccccc2O)CC1C(c1ccc(F)cc1)c1ccc(F)cc1` (configuration not stated), the melting point was in the range of 151 to 152 °C. The value for `NC(=O)Nc1ccc(-c2c[nH]c(=O)cn2)cc1` was over 300 °C; that for `COc1ccccc1CN1Cc2c(-c3ccccc3)c3cc(C)c(C)cc3c(=O)n2CC1=O` was 211 to 214 °C; that for `Cc1cc(-c2ccc(Cl)cc2)nc(-c2cccc(-c3cccc(S(N)(=O)=O)c3)c2)n1` was 221 °C.

By melting point is commonly meant the temperature of the solid-liquid transition.
